Calls of active or inactive are those of the source. The rule behind the calls is not given here.
Tested on: CCRIS mutagenicity, Ames/micronucleus/aberration tests
Assay: CCRIS mutagenicity studies
[1] = Test System: AMES SALMONELLA TYPHIMURIUM, Strain/Indicator: TA98, Metabolic Activation: RAT, LIVER, S-9, AROCLOR 1254, Method: STANDARD PLATE
[2] = Test System: AMES SALMONELLA TYPHIMURIUM, Strain/Indicator: TA100, Metabolic Activation: NONE, Method: STANDARD PLATE
[3] = Test System: AMES SALMONELLA TYPHIMURIUM, Strain/Indicator: TA100, Metabolic Activation: RAT, LIVER, S-9, AROCLOR 1254, Method: STANDARD PLATE
[4] = Test System: AMES SALMONELLA TYPHIMURIUM, Strain/Indicator: TA98, Metabolic Activation: NONE, Method: STANDARD PLATE
[5] = Test System: AMES SALMONELLA TYPHIMURIUM, Strain/Indicator: TA1535, Metabolic Activation: NONE, Method: STANDARD PLATE

With CCS(=O)(=O)CCn1c([N+](=O)[O-])cnc1C the mutagenic call [1] was “inactive; negative”, the mutagenic call (Test System: AMES SALMONELLA TYPHIMURIUM, Strain/Indicator: TA100(1,8-DNP6), Metabolic Activation: NONE, Method: PREINCUBATION (AEROBIC)) was “active; positive” and the mutagenic call (Test System: AMES SALMONELLA TYPHIMURIUM, Strain/Indicator: TA100(NR), Metabolic Activation: NONE, Method: PREINCUBATION (AEROBIC)) was “active; positive”. For the same compound, the mutagenic call (Test System: AMES SALMONELLA TYPHIMURIUM, Strain/Indicator: TA100(NR), Metabolic Activation: NONE, Method: PREINCUBATION (ANAEROBIC)) was “active; positive”, the mutagenic call (Test System: AMES SALMONELLA TYPHIMURIUM, Strain/Indicator: TA100(NR), Metabolic Activation: RAT, LIVER, S-9, AROCLOR 1254, Method: PREINCUBATION (AEROBIC)) was “active; positive” and the mutagenic call (Test System: AMES SALMONELLA TYPHIMURIUM, Strain/Indicator: TA100(NR), Metabolic Activation: RAT, LIVER, S-9, AROCLOR 1254, Method: PREINCUBATION (ANAEROBIC)) was “active; positive”. For the same compound, the mutagenic call (Test System: AMES SALMONELLA TYPHIMURIUM, Strain/Indicator: TA100(NR), Metabolic Activation: RAT, LIVER, S-9, AROCLOR 1254, Method: STANDARD PLATE) was “active; positive”, the mutagenic call (Test System: AMES SALMONELLA TYPHIMURIUM, Strain/Indicator: TA100, Metabolic Activation: NONE, Method: PREINCUBATION (AEROBIC)) was “active; positive” and the mutagenic call (Test System: AMES SALMONELLA TYPHIMURIUM, Strain/Indicator: TA100, Metabolic Activation: NONE, Method: PREINCUBATION (ANAEROBIC)) was “active; positive”. For the same compound, the mutagenic call [2] was “active; positive”, the mutagenic call (Test System: AMES SALMONELLA TYPHIMURIUM, Strain/Indicator: TA100, Metabolic Activation: RAT, LIVER, S-9, AROCLOR 1254, Method: PREINCUBATION (AEROBIC)) was “active; positive” and the mutagenic call (Test System: AMES SALMONELLA TYPHIMURIUM, Strain/Indicator: TA100, Metabolic Activation: RAT, LIVER, S-9, AROCLOR 1254, Method: PREINCUBATION (ANAEROBIC)) was “active; positive”. For the same compound, the mutagenic call [3] was “active; positive”, the mutagenic call (Test System: AMES SALMONELLA TYPHIMURIUM, Strain/Indicator: UTH8414, Metabolic Activation: NONE, Method: STANDARD PLATE) was “active; positive” and the mutagenic call (Test System: AMES SALMONELLA TYPHIMURIUM, Strain/Indicator: YG1029, Metabolic Activation: NONE, Method: PREINCUBATION (AEROBIC)) was “active; positive”.

For CC12CCC=C(C=O)C1(C=O)C2 (centres undefined), the mutagenic call [4] was “active; positive” and the mutagenic call [2] was “active; positive”.

In the case of C[C@@H]1O[C@@H]1C, the mutagenic call (Test System: AMES SALMONELLA TYPHIMURIUM, Strain/Indicator: TA100, Metabolic Activation: NONE, Method: FLASK VAPORIZATION) is reported as “active; positive”, the mutagenic call [2] is reported as “active; positive” and the mutagenic call (Test System: AMES SALMONELLA TYPHIMURIUM, Strain/Indicator: TA100, Metabolic Activation: RAT, LIVER, S-9, AROCLOR 1254, Method: FLASK VAPORIZATION) is reported as “active; positive”. The mutagenic call (Test System: AMES SALMONELLA TYPHIMURIUM, Strain/Indicator: TA1535, Metabolic Activation: NONE, Method: FLASK VAPORIZATION) was “active; positive”, the mutagenic call [5] was “active; positive” and the mutagenic call (Test System: AMES SALMONELLA TYPHIMURIUM, Strain/Indicator: TA1535, Metabolic Activation: RAT, LIVER, S-9, AROCLOR 1254, Method: FLASK VAPORIZATION) was “active; positive”.

In the case of O=P(O)(O)OC(CO)CO, the mutagenic call (Test System: AMES SALMONELLA TYPHIMURIUM, Strain/Indicator: TA97, Metabolic Activation: NONE, Method: PREINCUBATION) is reported as “inactive; negative”, the mutagenic call (Test System: AMES SALMONELLA TYPHIMURIUM, Strain/Indicator: TA97, Metabolic Activation: RAT, LIVER, S-9, AROCLOR 1254, Method: PREINCUBATION) is reported as “inactive; negative” and the mutagenic call (Test System: AMES SALMONELLA TYPHIMURIUM, Strain/Indicator: TA102, Metabolic Activation: NONE, Method: PREINCUBATION) is reported as “inactive; negative”. For the same compound, the mutagenic call (Test System: AMES SALMONELLA TYPHIMURIUM, Strain/Indicator: TA102, Metabolic Activation: RAT, LIVER, S-9, AROCLOR 1254, Method: PREINCUBATION) was “inactive; negative”.

In the case of CC1=CCC(=O)O1, the mutagenic call [4] is reported as “inactive; negative”, the mutagenic call [1] is reported as “inactive; negative” and the mutagenic call [2] is reported as “inactive; negative”. The mutagenic call [3] was “inactive; negative”.

Cc1ccccc1-c1ccc(N)cc1 was tested, and the mutagenic call [4] was “inactive; negative”, the mutagenic call [1] was “active; positive” and the mutagenic call [2] was “inactive; negative”. For the same compound, the mutagenic call [3] was “active; positive”.

In the case of OCc1cc2ccccc2c2ccc3ccccc3c12, the mutagenic call (Test System: AMES SALMONELLA TYPHIMURIUM, Strain/Indicator: TA98, Metabolic Activation: RAT, LIVER, CYTOSOL AND PAPS GENERATING SYSTEM, Method: PREINCUBATION) is reported as “active; positive” and the mutagenic call (Test System: AMES SALMONELLA TYPHIMURIUM, Strain/Indicator: TA98, Metabolic Activation: RAT, LIVER, S-9 AND NADPH GENERATING SYSTEM, Method: PREINCUBATION) is reported as “inactive; negative”.

O=[N+]([O-])c1ccc2c(c1)Cc1cccc([N+](=O)[O-])c1-2 was tested, and the mutagenic call (Test System: AMES SALMONELLA TYPHIMURIUM, Strain/Indicator: TA98, Metabolic Activation: HAMSTER, LIVER, S-9, AROCLOR 1254 (30%), Method: PREINCUBATION) was “active; positive”, the mutagenic call (Test System: AMES SALMONELLA TYPHIMURIUM, Strain/Indicator: TA98, Metabolic Activation: NONE, Method: PREINCUBATION) was “active; positive” and the mutagenic call (Test System: AMES SALMONELLA TYPHIMURIUM, Strain/Indicator: TA98, Metabolic Activation: RAT, LIVER, S-9, AROCLOR 1254 (30%), Method: PREINCUBATION) was “active; positive”. The mutagenic call (Test System: AMES SALMONELLA TYPHIMURIUM, Strain/Indicator: TA100, Metabolic Activation: HAMSTER, LIVER, S-9, AROCLOR 1254 (30%), Method: PREINCUBATION) was “active; positive”, the mutagenic call (Test System: AMES SALMONELLA TYPHIMURIUM, Strain/Indicator: TA100, Metabolic Activation: NONE, Method: PREINCUBATION) was “active; positive” and the mutagenic call (Test System: AMES SALMONELLA TYPHIMURIUM, Strain/Indicator: TA100, Metabolic Activation: RAT, LIVER, S-9, AROCLOR 1254 (30%), Method: PREINCUBATION) was “active; positive”.

CC(O)CN(C)c1ccc(NN)nn1 (centres undefined) was tested, and the mutagenic call (Test System: AMES SALMONELLA TYPHIMURIUM, Strain/Indicator: TA97, Metabolic Activation: NONE, Method: STANDARD PLATE) was “active; positive”, the mutagenic call (Test System: AMES SALMONELLA TYPHIMURIUM, Strain/Indicator: TA97, Metabolic Activation: RAT, LIVER, S-9, AROCLOR 1254, Method: STANDARD PLATE) was “active; positive” and the mutagenic call [4] was “active; positive”. For the same compound, the mutagenic call [1] was “active; positive”, the mutagenic call [2] was “inactive; negative” and the mutagenic call [3] was “inactive; negative”. The mutagenic call (Test System: AMES SALMONELLA TYPHIMURIUM, Strain/Indicator: TA102, Metabolic Activation: NONE, Method: STANDARD PLATE) was “active; positive”, the mutagenic call (Test System: AMES SALMONELLA TYPHIMURIUM, Strain/Indicator: TA102, Metabolic Activation: RAT, LIVER, S-9, AROCLOR 1254, Method: STANDARD PLATE) was “inactive; negative” and the mutagenic call [5] was “inactive; negative”. The mutagenic call (Test System: AMES SALMONELLA TYPHIMURIUM, Strain/Indicator: TA1535, Metabolic Activation: RAT, LIVER, S-9, AROCLOR 1254, Method: STANDARD PLATE) was “inactive; negative”, the mutagenic call (Test System: AMES SALMONELLA TYPHIMURIUM, Strain/Indicator: TA1537, Metabolic Activation: NONE, Method: STANDARD PLATE) was “active; positive” and the mutagenic call (Test System: AMES SALMONELLA TYPHIMURIUM, Strain/Indicator: TA1537, Metabolic Activation: RAT, LIVER, S-9, AROCLOR 1254, Method: STANDARD PLATE) was “active; positive”. For the same compound, the mutagenic call (Test System: AMES SALMONELLA TYPHIMURIUM, Strain/Indicator: TA1538, Metabolic Activation: NONE, Method: STANDARD PLATE) was “active; positive”, the mutagenic call (Test System: AMES SALMONELLA TYPHIMURIUM, Strain/Indicator: TA1538, Metabolic Activation: RAT, LIVER, S-9, AROCLOR 1254, Method: STANDARD PLATE) was “active; positive” and the mutagenic call (Test System: E. COLI, Strain/Indicator: WP2, Metabolic Activation: RAT, LIVER, S-9, AROCLOR 1254, Method: STANDARD PLATE) was “inactive; negative”. For the same compound, the mutagenic call (Test System: E. COLI, Strain/Indicator: WP2 UVRA, Metabolic Activation: RAT, LIVER, S-9, AROCLOR 1254, Method: STANDARD PLATE) was “active; positive”.

From PubChem BioAssay AID1259407 (Chemical Carcinogenesis Research Information System (CCRIS), 2018)
